Experimental data published in patent US8722849B2, “Polypeptides” (Novo Nordisk A/S, priority 2011, dated 2014).
Starred links: 1 amine or outer side, 2 acyl side, 3 side chain; linkers in the order of their positions; H or OH if unused. Positions of bridges follow the written chain, without caps; N, C: chain ends. Residues, ends and D or L forms follow the SMILES beside them. *: point of attachment. C20 diacid = O=C(O)CCCCCCCCCCCCCCCCCCC(=O)*; γGlu = O=C(O)[C@H](CCC(=O)[*:2])N[*:1]

Legend:
[1] = Assay (III) ThT fibrillation assay for physical stability; format: physicochemical
Procedure, shortened: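 Freshly prepared formulations, pH-adjusted, with 1 μM ThT; four or eight replicates incubated at 37 °C under 960 rpm orbital shaking. Fluorescence (ex 444/em 485 nm) read every 20 min; […]. Peptide concentration measured by RP-HPLC before and after the run.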

food intake = test: Assay (I) efficacy testing on appetite (food intake), ad libitum fed rat model; format: in vivo, Sprague Dawley (SD) rats
Source text: In the following examples reference is made to the following Assays: • Assay (I)— Experimental protocol for efficacy testing on appetite using an ad libitum fed rat model • ASSAY (II)a—Functional assay—Human calcitonin and amylin receptor assay • ASSAY (II)b—Functional assay—Rat calcitonin and rat amylin receptor assays • ASSAY (III)—ThT fibrillation assays for the assessment of physical stability of protein formulations • ASSAY (IV)—Determination of solubility • ASSAY (V)—Determination of binding to the human amylin receptor • ASSAY (VI)—Determination of the binding to the rat amylin receptor • ASSAY (VII)—Determination of binding to the human calcitonin receptor • ASSAY (VIII)—Determination of binding to the rat calcitonin receptor • ASSAY (IX)—pK—Determination of T % in mini-pig • ASSAY (X)—pK—Determination of T % in rat ASSAY (I)—Experimental Protocol for Efficacy Testing on Appetite Using an Ad Libitum Fed Rat Model
Sprague Dawley (SD) rats from Taconic Europe, Denmark are used for the experiments. The rats have a body weight 200-250 g at the start of experiment. The rats arrive at least 10-14 days before start of experiment to allow acclimatization to experimental settings. During this period the animals are handled at least 2 times. After arrival rats are housed individually for one week in a reversed light/dark phase (meaning that lights are off during daytime and on during nighttime) […]. Since rats are normally active and eat their major part of their daily food intake during the dark period, rats are dosed in the morning right before lights are turned off. This set-up results in the lowest data variation and highest test sensitivity. The experiment is conducted in the rats' home cages and rats have free access to food and water throughout the acclimatization period and the experiment period. Each dose of derivative is tested in a group of 5-8 rats. A vehicle group of 6-8 rats is included in each set of testing. Rats are dosed once according to body weight with a 0.01-3 mg/kg solution administered intraperitoneally (ip), orally (po) or subcutaneously (sc). The time of dosing is recorded for each group. After dosing, the rats are returned to their home cages, where they then have access to food and water. The food consumption is recorded individually continuously by on-line registration or manually every hour for 7 hours, and then after 24 h and sometimes 48 h. At the end of the experimental session, the animals are euthanised.
The individual data are recorded in Microsoft excel sheets. Outliers are excluded after applying the Grubbs statistical evaluation test for outliers, and the result is presented graphically using the GraphPad Prism program.

Row | SMILES | ThT pH 4.0 lag time ([1]; Table 8) | ThT pH 4.0 lag time ([1]; Table 9) | ThT pH 4.0 lag time ([1]; ThT fibrillation assay) | ThT pH 4.0 lag time (h) ([1]; ThT fibrillation assay) | Food intake reduction 0-24 h 3 nmol/kg (%) (food intake) | Food intake reduction 24-48 h 3 nmol/kg (%) (food intake) | Food intake reduction 0-24 h 30 nmol/kg (%) (food intake) | Food intake reduction 24-48 h 30 nmol/kg (%) (food intake)
1 | CC[C@H](C)[C@H](NC(=O)[C@@H]1CCCN1C(=O)CNC(=O)[C@H](Cc1ccccc1)NC(=O)[C@H](CO)NC(=O)[C@H](CO)NC(=O)[C@H](CO)NC(=O)[C@H](CO)NC(=O)[C@H](CCCNC(=N)N)NC(=O)[C@H](Cc1c[nH]cn1)NC(=O)[C@H](CC(C)C)NC(=O)[C@H](Cc1ccccc1)NC(=O)[C@H](CCC(=O)O)NC(=O)[C@H](C)NC(=O)[C@H](CC(C)C)NC(=O)[C@H](CCCNC(=N)N)NC(=O)[C@H](CCC(N)=O)NC(=O)[C@@H](NC(=O)[C@H](C)NC(=O)[C@@H]1CSSC[C@H](NC(=O)[C@H](Cc2c[nH]cn2)NC(=O)CC[C@H](NC(=O)CCCCCCCCCCCCCCCCCCC(=O)O)C(=O)O)C(=O)N[C@@H](CC(N)=O)C(=O)N[C@@H]([C@@H](C)O)C(=O)N[C@@H](C)C(=O)N[C@@H]([C@@H](C)O)C(=O)N1)[C@@H](C)O)C(=O)N[C@@H](CC(C)C)C(=O)N1CCC[C@H]1C(=O)N1CCC[C@H]1C(=O)N[C@H](C(=O)N[C@@H](CC(=O)O)C(=O)N[C@H](C(=O)NCC(=O)N[C@@H](CO)C(=O)N[C@@H](CC(=O)O)C(=O)N[C@H](C(=O)N[C@@H](Cc1ccc(O)cc1)C(N)=O)[C@@H](C)O)C(C)C)[C@@H](C)O [Example 9, N-alpha-[(S)-4-Carboxy-4-(19-carboxynonadecanoylamino)butyryl]-[His1,Glu14,His17,Arg18,Ser21,Ser22,Asp31,Asp35]-pramlintide] ({C20 diacid-γGlu}-HCNTATCATQRLAEFLHRSSSSFGPILPPTDVGSDTY-NH2; disulfide 2-7 (inferred); C-terminus assumed) | >45 h | >45 h | >45 h | >45 h | 39% | 32% |  | 
2 | CC[C@H](C)[C@H](NC(=O)[C@@H]1CCCN1C(=O)CNC(=O)[C@H](Cc1ccccc1)NC(=O)[C@H](CC(N)=O)NC(=O)[C@H](CC(N)=O)NC(=O)[C@H](CO)NC(=O)[C@H](CO)NC(=O)[C@H](Cc1c[nH]cn1)NC(=O)[C@H](Cc1c[nH]cn1)NC(=O)[C@H](CC(C)C)NC(=O)[C@H](Cc1ccccc1)NC(=O)[C@H](CCC(=O)O)NC(=O)[C@H](C)NC(=O)[C@H](CC(C)C)NC(=O)[C@H](CCCNC(=N)N)NC(=O)[C@H](CCC(N)=O)NC(=O)[C@@H](NC(=O)[C@H](C)NC(=O)[C@@H]1CSSC[C@H](NC(=O)[C@H](Cc2c[nH]cn2)NC(=O)[C@H](Cc2c[nH]cn2)NC(=O)[C@H](Cc2c[nH]cn2)NC(=O)CC[C@H](NC(=O)CCCCCCCCCCCCCCCCCCC(=O)O)C(=O)O)C(=O)N[C@@H](CC(N)=O)C(=O)N[C@@H]([C@@H](C)O)C(=O)N[C@@H](C)C(=O)N[C@@H]([C@@H](C)O)C(=O)N1)[C@@H](C)O)C(=O)N[C@@H](CC(C)C)C(=O)N1CCC[C@H]1C(=O)N1CCC[C@H]1C(=O)N[C@H](C(=O)N[C@@H](CC(N)=O)C(=O)N[C@H](C(=O)NCC(=O)N[C@@H](CO)C(=O)N[C@@H](CC(N)=O)C(=O)N[C@H](C(=O)N[C@@H](Cc1ccc(O)cc1)C(N)=O)[C@@H](C)O)C(C)C)[C@@H](C)O [Example 11, N-alpha-[(S)-4-Carboxy-4-(19-carboxynonadecanoylamino)butyryl]-His-His-[His1,Glu14,His17]-pramlintide] ({C20 diacid-γGlu}-HHHCNTATCATQRLAEFLHHSSNNFGPILPPTNVGSNTY-NH2; disulfide 4-9 (inferred)) |  |  |  | 7.4 h |  |  | 87% | 92%
3 | CC[C@H](C)[C@H](NC(=O)[C@@H]1CCCN1C(=O)CNC(=O)[C@H](Cc1ccccc1)NC(=O)[C@H](CC(N)=O)NC(=O)[C@H](CC(N)=O)NC(=O)[C@H](CO)NC(=O)[C@H](CO)NC(=O)[C@H](Cc1c[nH]cn1)NC(=O)[C@H](CCCNC(=N)N)NC(=O)[C@H](CC(C)C)NC(=O)[C@H](Cc1ccccc1)NC(=O)[C@H](CCC(=O)O)NC(=O)[C@H](C)NC(=O)[C@H](CC(C)C)NC(=O)[C@H](CCCNC(=N)N)NC(=O)[C@H](CCC(N)=O)NC(=O)[C@@H](NC(=O)[C@H](C)NC(=O)[C@@H]1CSSC[C@H](NC(=O)[C@H](Cc2c[nH]cn2)NC(=O)[C@H](Cc2c[nH]cn2)NC(=O)[C@H](Cc2c[nH]cn2)NC(=O)CC[C@H](NC(=O)CCCCCCCCCCCCCCCCCCC(=O)O)C(=O)O)C(=O)N[C@@H](CC(N)=O)C(=O)N[C@@H]([C@@H](C)O)C(=O)N[C@@H](C)C(=O)N[C@@H]([C@@H](C)O)C(=O)N1)[C@@H](C)O)C(=O)N[C@@H](CC(C)C)C(=O)N1CCC[C@H]1C(=O)N1CCC[C@H]1C(=O)N[C@H](C(=O)N[C@@H](CC(N)=O)C(=O)N[C@H](C(=O)NCC(=O)N[C@@H](CO)C(=O)N[C@@H](CC(N)=O)C(=O)N[C@H](C(=O)N[C@@H](Cc1ccc(O)cc1)C(N)=O)[C@@H](C)O)C(C)C)[C@@H](C)O [Example 12, N-alpha-[(S)-4-Carboxy-4-(19-carboxynonadecanoylamino)butyryl]-His-His-[His1,Glu14,Arg17]-pramlintide] ({C20 diacid-γGlu}-HHHCNTATCATQRLAEFLRHSSNNFGPILPPTNVGSNTY-NH2; disulfide 4-9 (inferred); C-terminus assumed) |  |  | >45 h | >45 h |  |  | 70% | 45%
4 | CC[C@H](C)[C@H](NC(=O)[C@@H]1CCCN1C(=O)CNC(=O)[C@H](Cc1ccccc1)NC(=O)[C@H](CC(N)=O)NC(=O)[C@H](CC(N)=O)NC(=O)[C@H](CO)NC(=O)[C@H](CO)NC(=O)[C@H](CCCNC(=N)N)NC(=O)[C@@H](NC(=O)[C@H](CC(C)C)NC(=O)[C@H](Cc1ccccc1)NC(=O)[C@H](CCC(=O)O)NC(=O)[C@H](C)NC(=O)[C@H](CC(C)C)NC(=O)[C@H](CCCNC(=N)N)NC(=O)[C@H](CCC(N)=O)NC(=O)[C@@H](NC(=O)[C@H](C)NC(=O)[C@@H]1CSSC[C@H](NC(=O)[C@H](Cc2c[nH]cn2)NC(=O)CC[C@H](NC(=O)CCCCCCCCCCCCCCCCCCC(=O)O)C(=O)O)C(=O)N[C@@H](CC(N)=O)C(=O)N[C@@H]([C@@H](C)O)C(=O)N[C@@H](C)C(=O)N[C@@H]([C@@H](C)O)C(=O)N1)[C@@H](C)O)C(C)C)C(=O)N[C@@H](CC(C)C)C(=O)N1CCC[C@H]1C(=O)N1CCC[C@H]1C(=O)N[C@H](C(=O)N[C@@H](CC(N)=O)C(=O)N[C@H](C(=O)NCC(=O)N[C@@H](CO)C(=O)N[C@@H](CC(N)=O)C(=O)N[C@H](C(=O)N[C@@H](Cc1ccc(O)cc1)C(N)=O)[C@@H](C)O)C(C)C)[C@@H](C)O [Example 15, N-alpha-[(S)-4-Carboxy-4-(19-carboxynonadecanoylamino)butyryl]-[His1,Glu14,Arg18]-pramlintide] ({C20 diacid-γGlu}-HCNTATCATQRLAEFLVRSSNNFGPILPPTNVGSNTY-NH2; disulfide 2-7 (inferred); C-terminus assumed) |  |  |  | 4.7 h | 56% | 59% |  | 
